# According to ChEMBL document CHEMBL4308889, “Resorcinol alkyl glucosides as potent tyrosinase inhibitors” (Bioorg Med Chem Lett, 2019):
# Molecular target: T1, Tyrosinase (Homo sapiens, UniProt P14679)
# T1 sequence (P14679 whole entry): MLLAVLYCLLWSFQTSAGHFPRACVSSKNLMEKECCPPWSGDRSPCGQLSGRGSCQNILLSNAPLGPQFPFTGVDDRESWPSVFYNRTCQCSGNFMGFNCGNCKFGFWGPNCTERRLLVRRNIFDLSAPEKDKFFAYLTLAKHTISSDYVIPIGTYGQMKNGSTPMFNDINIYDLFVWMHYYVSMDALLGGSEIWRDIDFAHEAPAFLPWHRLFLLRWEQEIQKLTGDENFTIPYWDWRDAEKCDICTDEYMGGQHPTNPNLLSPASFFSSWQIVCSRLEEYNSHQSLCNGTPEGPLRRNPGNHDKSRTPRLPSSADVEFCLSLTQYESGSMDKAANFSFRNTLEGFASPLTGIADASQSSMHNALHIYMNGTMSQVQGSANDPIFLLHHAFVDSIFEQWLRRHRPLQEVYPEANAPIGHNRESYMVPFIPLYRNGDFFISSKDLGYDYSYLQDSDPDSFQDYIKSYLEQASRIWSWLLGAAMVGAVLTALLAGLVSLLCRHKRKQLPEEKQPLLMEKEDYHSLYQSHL
# Experiment: Inhibition of tyrosinase (unknown origin) using L-DOPA as substrate preincubated with substrate for 5 mins followed by enzyme addition and measured immediately by spectrophotometric method
row,Structure (SMILES),IC50
1,OC[C@H]1O[C@@H](Oc2ccc(O)cc2O)[C@H](O)[C@@H](O)[C@@H]1O,417000 nM

# Molecular target: T2, Tyrosinase (Agaricus bisporus, UniProt O42713)
# T2 sequence (O42713 whole entry): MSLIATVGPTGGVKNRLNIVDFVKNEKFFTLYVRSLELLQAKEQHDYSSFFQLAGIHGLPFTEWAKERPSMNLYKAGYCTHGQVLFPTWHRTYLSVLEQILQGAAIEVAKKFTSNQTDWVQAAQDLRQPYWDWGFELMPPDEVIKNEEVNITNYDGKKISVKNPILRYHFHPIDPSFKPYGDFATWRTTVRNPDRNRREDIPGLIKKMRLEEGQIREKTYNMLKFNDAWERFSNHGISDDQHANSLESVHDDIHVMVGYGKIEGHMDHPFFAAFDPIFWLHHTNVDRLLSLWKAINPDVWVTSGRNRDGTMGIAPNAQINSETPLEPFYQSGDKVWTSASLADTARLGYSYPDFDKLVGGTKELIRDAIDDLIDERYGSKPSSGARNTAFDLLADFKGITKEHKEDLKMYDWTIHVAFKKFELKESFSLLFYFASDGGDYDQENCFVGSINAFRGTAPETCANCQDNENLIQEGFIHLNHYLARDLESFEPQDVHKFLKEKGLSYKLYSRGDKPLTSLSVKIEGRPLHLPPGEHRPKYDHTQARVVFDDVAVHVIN
# Experiment: Inhibition of mushroom tyrosinase using TBC as substrate by spectrophotometric method
row,Structure (SMILES),IC50
1,OC[C@H]1O[C@@H](OCCCCc2ccc(O)cc2O)[C@H](O)[C@@H](O)[C@@H]1O,1360 nM
2,OC[C@H]1O[C@@H](OCCCCCCc2ccc(O)cc2O)[C@H](O)[C@@H](O)[C@@H]1O,630 nM
3,OC[C@H]1O[C@@H](OCCc2ccc(O)cc2O)[C@H](O)[C@@H](O)[C@@H]1O,35900 nM
4,OC[C@H]1O[C@@H](OCCCc2ccc(O)cc2O)[C@H](O)[C@@H](O)[C@@H]1O,3620 nM
5,CCCCCCc1ccc(O)cc1O [HEXYLRESORCINOL],610 nM
6,OC[C@H]1O[C@@H](OCCCCCCCCCCCCCCc2ccc(O)cc2O)[C@H](O)[C@@H](O)[C@@H]1O,390 nM
7,OC[C@H]1O[C@@H](OCCCCCCCCCCc2ccc(O)cc2O)[C@H](O)[C@@H](O)[C@@H]1O,410 nM
